Results: US5221616A, “Prevention of spontaneous complement activation in mammalian biological fluids” (Quidel Corporation, priority 1988, dated 1993)
“Also recorded” adds a separate entry of the source.

Assays:
C3 [1] = molecular target: T1, C3 (Homo sapiens, UniProt P01024); experiment: iC3b fragment EIA: spontaneous C3 activation in EDTA-NHP incubated with increasing concentrations of polyhydroxyl compound in water; assay type: biochemical; conditions: 22° C. for 48 hr; for spontaneous iC3b fragment production: increasing final concentrations of compound (galactose up to 2M)
T1 construct: 250 μL of freshly drawn EDTA-normal human plasma (EDTA-NHP); from tissue; host or cells: normal human blood plasma (EDTA plasma; in A12 also citrate and heparin plasma)
Method: FIG. 1. […] 250 μL of freshly drawn EDTA-normal human plasma (EDTA-NHP) was mixed with 0 to 250 μL of 4M β-D-glucose dissolved in deionized water. All reaction mixtures were brought up to a final reaction volume of 500 μL using deionized water as the diluent. Each reaction mixture was mixed thoroughly, incubated at 22° C. for 48 hr and assayed for iC3b fragment levels. A non-incubated control (-70° C.) was prepared by mixing 1 part EDTA-NHP with 1 part 4M β-D-glucose dissolved in deionized water. This control reaction mixture was stored at -70° C. until it was assayed in the iC3b fragment EIA along with the incubated experimental samples.
Several different polyhydroxyl compounds were individually dissolved in deionized water to obtain solutions of each compound at a concentration approaching saturation at 22° C. Freshly drawn EDTA-NHP was mixed with increasing concentrations of the polyhydroxyl compound to be tested keeping the final reaction volumes constant. For example, 250 μL of freshly drawn EDTA-NHP was mixed with 0 to 250 μL of the concentrated polyhydroxyl solution to be tested. All reaction mixtures were brought up to a final reaction volume of 500 μL using deionized water as the diluent. Each reaction mixture was mixed thoroughly and incubated at 22° C. for 48 hr. A non-incubated control was prepared for each experiment by mixing 1 part EDTA-NHP with 1 part of the concentrated polyhydroxyl solution to be tested. This control mixture was held at -70° C. until it was thawed out, along with the other experimental samples, and assayed for the occurrence of spontaneous complement activation. For this initial set of experiments, iC3b fragment levels were quantitated in all test samples using the Cytotech monoclonal antibody based EIA procedure. The first analyte selected to be measured was iC3b since, based on previously published data as outlined above, it was anticipated that the C3 protein would be the most susceptible to spontaneous activation upon storage of EDTA-NHP in vitro.
All of the EIA tests employed in these studies utilized solid-phase monoclonal antibody capture assay kit procedures (Cytotech, Inc., San Diego, Calif.). The procedure was basically the same for each EIA kit. Briefly, in the first step of each EIA assay, 100 μL of standards, controls and diluted test specimens were incubated at 22° C., i.e., room temperature, in duplicate polystyrene microtiter wells precoated with a capture monoclonal antibody which specifically reacted with the complement fragment or complex under investigation. During this first incubation period, complement fragments or complexes were bound to the monoclonal antibody coated microassay wells. A wash cycle removed unbound materials.
In the second step, 50 μL of horseradish peroxidase (HRP)-conjugated purified IgG antibody, which reacted with the captured complement fragment or complex analyte, was added to each well and incubated at 22° C. A wash cycle removed unbound conjugate.
In the third step, 100 μL of the HRP enzyme substrate ABTS (0.034% ABTS and 0.0126% H2 O2 in 100 mM sodium citrate buffer, pH 4.0) was added to each well and incubated at 22° C. The bound HRP-conjugatedantibody reacted with the ABTS substrate producing a green color which was proportional to the amount of specimen analyte bound. The HRP-enzymatic reaction was stopped upon addition of 50 μL 250 mM oxalic acid. The substrate color intensity present in each well was measured at 405 nm using an automated EIA microplate reader and the analyte concentration/mL in the original test specimen was determined for each analyte from the appropriate standard curve.
iC3b EIA: The capture mouse monoclonal antibody used to coat microtiter wells for the iC3b fragment EIA was Cytotech MoAb 013III-1.1.6.1 which reacts with a neoantigenic determinant expressed on the iC3b activation fragment of human C3.

C3 [2] = molecular target: T1, C3; experiment: polyhydroxyl compounds in Buffer B mixed with EDTA-NHP: iC3b and C3d,g/iC3b fragment EIA; assay type: biochemical; conditions: 22° C. for 48 hr
Method: (§1) An extensive series of experiments were conducted to examine the ability of a large variety of polyhydroxyl compounds to prevent the spontaneous activation of C in EDTA-NHP during in vitro storage at 22° C for 48 hr. EDTA-NHP was mixed with an equal volume of Buffer B containing the polyhydroxyl compound to be tested. In these experiments Buffer B consisted of 40 mM EDTA and 30 IU sodium heparin/mL dissolved in deionized water, pH 7.2. The final concentration of polyhydroxyl compound dissolved in Buffer B varied for each compound due to differences in solubility. For each set of experiments, EDTA-NHP was also diluted and mixed with an equal volume of PBS (untreated control). The EDTA-NHP samples mixed with each polyhydroxyl compound dissolved in Buffer B and the corresponding untreated controls were incubated at 22° C. for 48 hr, stored at -70° C. and subsequently assayed for C4d, iC3b, C3d,g/iC3b and Bb complement fragment levels as well as for circulating immune complex levels using the Raji Cell Replacement EIA. […] This conclusion was based upon the iC3b percent protection values determined for each of the polyhydroxyl compounds (treated samples) as listed in FIG. 14.
(§2) The concentrations, expressed as μg analyte/mL, of a number of different activation products of spontaneous complement activation were measured in the course of these experiments. In an effort to normalize the data obtained from the various determinations so that the results from different assays could be directly compared to one another, a percent protection value was calculated for each analyte measured. The precent protection values were calculated by dividing the μg analyte/mL in the non-incubated, time-zero control sample by the μg analyte/mL in the experimental sample, multiplied by 100%. A percent protection value of 70 to 130% for any given analyte measured in an experimental sample was considered to indicate that the invention formulation tested was fully effective at providing protection against the occurrence of spontaneous complement activation. Ideally, the effective composition formulation would provide full protection against the occurrence of spontaneous complement activation in a complement-containing sample for all of the analytes measured. In fact, this was the case with several polyhydroxyl compounds when they were present in sufficiently high concentrations in a preferred embodiment of the invention.
A plasma dilution of 1:50 and a serum dilution of 1:100 were used in the iC3b fragment EIA tests. The immunochemical reaction specificity of MoAb 013III-1.1.6.1 has been published previously in abstract form, W. P. Kolb, et al., Fed. Proc. 44:990 (1985).
A plasma dilution of 1:250 and a serum dilution of 1:500 were used in the C3d,g/iC3b EIA tests. […] 135:2015-2019 (1985); Y. Kanayama, et al., J. Immunol. Meth. 88:33-36 (1986). The immunochemical reaction specificity of the Cytotech MoAb 013III-31.4.3.2.2has been published previously in abstract form, W. P. Kolb, et al., FASEB Journal 2:A1834 (1988).

C4 [3] = experiment: polyhydroxyl compounds in Buffer B mixed with EDTA-NHP: C4d fragment EIA; assay type: biochemical, human; conditions: 22° C. for 48 hr
Method: as §1, §2

complement = experiment: protection against spontaneous complement activation in complement-containing samples during in vitro storage (summary of fragment EIAs); assay type: biochemical, human; conditions: for final concentration identified as particularly effective: added to a complement-containing sample; for range of final concentrations found to provide protection against spontaneous complement activation: complement-containing samples during in vitro storage; for acceptable range of final concentration at which spontaneous C activation will be prevented: ingredient of the formulation
Method: A method for screening compounds to determine the complement preventing effectiveness thereof is described in detail in the course of the following experimental description and discussion. The method essentially comprises treating complement-containing samples with various doses of the test compounds, storing the thus-treated sample at conventional storage temperature for a minimum of about 48 hours and determining the extent of complement activation which occurs during the storage period by performing assays on the sample for various complement activation products. The results are compared with determination of the level of the same activation products at the beginning of the storage period, i.e., a non-incubated control sample. A non-treated control, comprising an identical sample diluted with phosphate buffered saline (PBS) in a volume ratio identical to that of the sample and polyhydroxyl solution is similarly assayed.
as §2
A percent protection value range of 70 to 130% was used as a criterion to define that a given invention embodiment was able to provide full protection against spontaneous complement activation for the following reasons: The coefficient of variation for the EIA kits employed in these studies ranged from 10-30% when analyte levels were measured in the very low range of values found in freshly-drawn normal human plasma samples. Therefore, in order to ensure that a given result fell within the variability range of the assays employed, a percent protection value between 70 and 130% was considered to represent a fully protective effect.

[4] = tested on: coagulation system and fibrin clot formation; conditions: whole blood or plasma; cited from earlier work
complement system = conditions: plasma or serum; cited from earlier work
[5] = tested on: C3, Factor B, or the terminal complement proteins; experiment: effect of sodium heparin on storage behavior of other complement proteins; assay type: biochemical, human; conditions: sodium heparin in the stabilizing formulation
C4 [6] = experiment: C4d fragment EIA: heparin plasma or heparin whole blood stored on ice or at 22° C.; assay type: biochemical, human
Method: The first set of experiments addressed the question of how long can a human complement-containing sample be incubated at various temperatures in vitro before evidence of spontaneous C activation can be measured. In FIG. 16 results are presented in which freshly drawn EDTA-NHP, heparin plasma, heparin whole blood or EDTA whole blood were stored on ice (1° C.) or at 22° C. […] In the case of the whole blood samples, the cells were removed by centrifugation before the plasma supernatants were collected and stored at -70° C. […] The other components of the invention composition are also required in order to obtain full protection against spontaneous C activation. This point will be covered in further detail below.

T1 sequence (P01024 672-1663 limits assumed): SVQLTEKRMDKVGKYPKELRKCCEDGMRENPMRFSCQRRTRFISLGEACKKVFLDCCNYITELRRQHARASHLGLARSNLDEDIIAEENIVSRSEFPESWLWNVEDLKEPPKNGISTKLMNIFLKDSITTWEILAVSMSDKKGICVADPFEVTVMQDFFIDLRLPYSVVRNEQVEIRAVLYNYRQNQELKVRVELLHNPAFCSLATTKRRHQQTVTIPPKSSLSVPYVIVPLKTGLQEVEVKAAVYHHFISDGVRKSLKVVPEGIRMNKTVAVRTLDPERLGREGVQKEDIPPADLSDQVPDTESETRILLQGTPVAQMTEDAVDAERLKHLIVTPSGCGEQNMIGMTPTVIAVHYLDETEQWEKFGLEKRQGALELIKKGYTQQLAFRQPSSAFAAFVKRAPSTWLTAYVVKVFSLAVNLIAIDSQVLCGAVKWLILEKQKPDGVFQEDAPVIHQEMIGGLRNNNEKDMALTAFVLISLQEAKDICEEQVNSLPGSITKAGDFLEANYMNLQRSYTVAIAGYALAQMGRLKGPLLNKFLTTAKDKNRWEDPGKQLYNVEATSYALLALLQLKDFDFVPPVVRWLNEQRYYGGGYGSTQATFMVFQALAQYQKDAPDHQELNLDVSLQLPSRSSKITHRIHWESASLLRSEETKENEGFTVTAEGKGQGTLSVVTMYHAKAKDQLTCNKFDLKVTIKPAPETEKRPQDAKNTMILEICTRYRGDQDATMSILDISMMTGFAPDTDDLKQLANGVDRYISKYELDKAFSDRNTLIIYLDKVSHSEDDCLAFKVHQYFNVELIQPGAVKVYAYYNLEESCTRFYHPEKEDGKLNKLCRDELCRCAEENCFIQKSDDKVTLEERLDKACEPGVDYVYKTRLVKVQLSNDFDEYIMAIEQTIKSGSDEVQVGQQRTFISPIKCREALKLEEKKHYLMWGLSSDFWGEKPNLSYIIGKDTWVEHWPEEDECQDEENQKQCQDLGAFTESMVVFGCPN
T1 sequence (P01024 23-667 limits assumed): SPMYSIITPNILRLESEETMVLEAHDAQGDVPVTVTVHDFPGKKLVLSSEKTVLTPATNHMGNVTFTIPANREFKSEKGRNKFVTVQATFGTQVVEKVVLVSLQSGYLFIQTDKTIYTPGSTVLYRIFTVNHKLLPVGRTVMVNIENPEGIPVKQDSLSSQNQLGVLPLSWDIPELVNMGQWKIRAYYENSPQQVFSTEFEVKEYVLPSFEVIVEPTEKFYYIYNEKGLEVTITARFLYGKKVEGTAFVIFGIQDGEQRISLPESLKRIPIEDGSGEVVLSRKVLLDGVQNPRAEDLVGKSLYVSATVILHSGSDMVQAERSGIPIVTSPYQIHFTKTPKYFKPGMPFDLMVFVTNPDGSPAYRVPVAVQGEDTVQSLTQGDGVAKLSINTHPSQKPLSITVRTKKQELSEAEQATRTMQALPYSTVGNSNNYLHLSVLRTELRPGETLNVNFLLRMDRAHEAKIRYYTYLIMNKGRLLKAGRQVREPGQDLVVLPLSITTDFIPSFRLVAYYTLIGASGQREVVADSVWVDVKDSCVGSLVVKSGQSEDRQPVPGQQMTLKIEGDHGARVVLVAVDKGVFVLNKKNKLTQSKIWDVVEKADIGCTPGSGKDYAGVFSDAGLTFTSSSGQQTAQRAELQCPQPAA

## galactose
C3 [1]
  spontaneous iC3b fragment production: only slight inhibition
C3 [2]; final concentration 2M
  prevention of spontaneous activation of C3: ineffective

## O=CC[C@H](O)[C@H](O)CO [2-deoxy-D-ribose]
C4 [3]; final concentration 2M
  prevention of spontaneous activation of C4 (C4d fragment production): able to prevent
C3 [2]; final concentration 2M
  prevention of spontaneous activation of C3: ineffective

## OC[C@@H](O)[C@@H](O)[C@H](O)[C@H](O)CO [D-mannitol]
C4 [3]; final concentration 1.5M
  prevention of spontaneous activation of C4 (C4d fragment production): unable to inhibit
C3 [2]; final concentration 1.5M
  prevention of spontaneous activation of C3: ineffective; also recorded: unable to inhibit

## OC[C@H]1O[C@H](OC[C@H]2OC(O)[C@H](O)[C@@H](O)[C@@H]2O)[C@H](O)[C@@H](O)[C@H]1O (stereo partly shown) [melibiose]
C3 [1]
  spontaneous iC3b fragment production: inhibited with increasing concentrations
complement
  final concentration identified as particularly effective: ≥ 1.5 M
  range of final concentrations found to provide protection against spontaneous complement activation: 0.6 to 4 M

## O[C@H]1[C@H](O)[C@@H](O)[C@H](O)[C@@H](O)[C@H]1O [inositol]
C3 [2]; final concentration 0.5M
  prevention of spontaneous activation of C3: ineffective

## O=C(O)CN(CCN(CC(=O)O)CC(=O)O)CC(=O)O [EDTA, ethylene diamine tetraacetic acid]
[4]
  final concentration that inhibits activation of the coagulation system and fibrin clot formation: ≥ 1 mM
Complement system
  final concentration that inhibits activation of the complement system: ≥ 1 mM
complement
  acceptable range of final concentration at which spontaneous C activation will be prevented: 1 to 40 mM

## sodium heparin
[5]
  effect on storage behavior of C3, Factor B, or the terminal complement proteins: does not improve the storage behavior
C4 [6]; heparin alone, 22° C for as long as 24 hr
  prevention of spontaneous activation of C4: not sufficient to prevent
C4 [6]; plasma or whole blood collected in sodium heparin, 1° C. or 22° C.
  time without clear evidence of spontaneous C4 activation: ≥ 6 h
complement
  acceptable range of final concentration at which spontaneous C activation will be prevented: 15-60 IU/mL

## OC[C@H]1O[C@H](OC[C@H]2O[C@H](O[C@]3(CO)O[C@H](CO)[C@@H](O)[C@@H]3O)[C@H](O)[C@@H](O)[C@@H]2O)[C@H](O)[C@@H](O)[C@H]1O [D-raffinose]
C4 [3]; final concentration 1.5M
  prevention of spontaneous activation of C4 (C4d fragment production): unable to inhibit
C3 [2]; final concentration 1.5M
  prevention of spontaneous activation of C3: ineffective; also recorded: unable to inhibit

## N[C@H]1C(O)O[C@H](CO)[C@@H](O)[C@@H]1O (stereo partly shown) [glucosamine]
C3 [2]; final concentration 0.5M
  prevention of spontaneous activation of C3: ineffective

## OC[C@H]1O[C@@](CO)(O[C@H]2O[C@H](CO)[C@@H](O)[C@H](O)[C@H]2O)[C@@H](O)[C@@H]1O [sucrose]
C3 [1]
  spontaneous iC3b fragment production: inhibited with increasing concentrations
complement
  final concentration identified as particularly effective: ≥ 1.75 M
  range of final concentrations found to provide protection against spontaneous complement activation: 1.2 to 4 M

## OC[C@H]1O[C@@H](OC[C@H]2OC(O)[C@H](O)[C@@H](O)[C@@H]2O)[C@H](O)[C@@H](O)[C@@H]1O (stereo partly shown) [gentiobiose]
C3 [1]
  spontaneous iC3b fragment production: inhibited with increasing concentrations
complement
  final concentration identified as particularly effective: ≥ 1.5 M
  range of final concentrations found to provide protection against spontaneous complement activation: 1.0 to 4 M

## OC[C@H]1O[C@H](O[C@H]2O[C@H](CO)[C@@H](O)[C@H](O)[C@H]2O)[C@H](O)[C@@H](O)[C@@H]1O [trehalose]
C3 [1]; compared with -70° C. control
  final concentration that completely prevented spontaneous iC3b fragment production: ≥ 1.3 M
C3 [1]
  spontaneous iC3b fragment production: inhibited with increasing concentrations
complement
  final concentration identified as particularly effective: ≥ 1.3 M
  range of final concentrations found to provide protection against spontaneous complement activation: 0.6 to 3.5 M

## N[C@@H]1C(O)O[C@H](CO)[C@@H](O)[C@@H]1O (stereo partly drawn) [D-mannosamine]
C3 [2]; final concentration 2M
  prevention of spontaneous activation of C3: ineffective
